The values that follow come from ChEMBL document CHEMBL5223164 (ACS Med Chem Lett, 2023).

SMILES strings stand for the structures.

Data set [1] concerns the target Somatostatin receptor type 2 (Homo sapiens, UniProt P30874).
Description: Agonist activity at human SST2 receptor expressed in CHO-K1 cells assessed as inhibition of NKH477-induced intracellular cAMP accumulation incubated for 20 mins by HTRF assay
For data set [2], the target named is Somatostatin receptor type 5 (Homo sapiens, UniProt P35346). The data set can be described thus: Agonist activity at human SST5 receptor expressed in CHO-K1 cells assessed as inhibition of NKH477-induced intracellular cAMP accumulation incubated for 20 mins by HTRF assay. The class given is cell-based. (In general: Cyclic AMP is a second messenger, typically raised through Gs and lowered through Gi signalling.)
Sequence of Somatostatin receptor type 5 (P35346 whole entry): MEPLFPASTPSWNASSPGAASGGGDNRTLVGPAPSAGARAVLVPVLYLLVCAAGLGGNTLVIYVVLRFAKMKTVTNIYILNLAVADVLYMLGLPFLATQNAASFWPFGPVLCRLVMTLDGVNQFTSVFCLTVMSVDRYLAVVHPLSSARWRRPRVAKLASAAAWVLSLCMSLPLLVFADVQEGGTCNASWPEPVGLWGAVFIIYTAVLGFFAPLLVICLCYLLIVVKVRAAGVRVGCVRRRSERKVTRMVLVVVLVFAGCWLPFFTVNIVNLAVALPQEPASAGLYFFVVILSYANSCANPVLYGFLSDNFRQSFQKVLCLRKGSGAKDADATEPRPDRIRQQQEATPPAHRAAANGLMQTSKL

In data set [3] the target is Somatostatin receptor type 3 (Homo sapiens, UniProt P32745). The data set can be described thus: Agonist activity at human SST3 receptor expressed in CHO-K1 cells assessed as inhibition of NKH477-induced intracellular cAMP accumulation incubated for 20 mins by HTRF assay. In kind it is cell-based.
Sequence of Somatostatin receptor type 3 (P32745 whole entry): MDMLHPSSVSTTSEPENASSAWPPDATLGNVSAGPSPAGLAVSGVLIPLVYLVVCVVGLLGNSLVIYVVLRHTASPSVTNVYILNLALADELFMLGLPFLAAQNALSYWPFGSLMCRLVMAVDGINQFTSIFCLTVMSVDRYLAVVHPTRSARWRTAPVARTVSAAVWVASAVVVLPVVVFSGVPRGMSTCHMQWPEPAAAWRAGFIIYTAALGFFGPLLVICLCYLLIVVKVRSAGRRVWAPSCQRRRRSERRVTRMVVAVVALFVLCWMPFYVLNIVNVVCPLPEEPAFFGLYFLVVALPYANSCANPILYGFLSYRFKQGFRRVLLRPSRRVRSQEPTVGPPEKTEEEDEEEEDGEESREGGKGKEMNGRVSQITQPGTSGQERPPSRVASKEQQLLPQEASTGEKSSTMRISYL
Data set [4] concerns the target Somatostatin receptor type 4 (Homo sapiens, UniProt P31391). The data set can be described thus: Agonist activity at human SST4 receptor expressed in CHO-K1 cells assessed as inhibition of NKH477-induced intracellular cAMP accumulation incubated for 20 mins by HTRF assay. The class given is cell-based.
Data set [5] addresses Voltage-gated inwardly rectifying potassium channel KCNH2 (Homo sapiens, UniProt Q12809). The data set can be described thus: Inhibition of hERG by fluorescence polarization assay. The class given is toxicity. In general terms: hERG is a cardiac potassium channel; its block is linked to QT prolongation.
Data set [6] has as its target Somatostatin receptor type 1 (Homo sapiens, UniProt P30872). The data set can be described thus: Agonist activity at human SST1 receptor expressed in CHO-K1 cells assessed as inhibition of NKH477-induced intracellular cAMP accumulation incubated for 20 mins by HTRF assay. The class given is cell-based.
The nature of data set [7]: Half life in Sprague-Dawley rat at 2.5 mg/kg, iv. To be noted: in vivo.
Data set [8] concerns the target T1, Cytochrome P450 3A4 (Homo sapiens, UniProt P08684). The data set can be described thus: Inhibition of human CYP3A4 expressed in insect cell microsomes at 10 uM in presence of NADP+ by fluorescence based analysis. The class given is ADME, Microsome.
Data set [9] has as its target Somatostatin receptor type 2 (Rattus norvegicus, UniProt P30680). The data set can be described thus: Agonist activity at rat SST2 receptor.
Data set [10] in a line: Clearance in Sprague-Dawley rat at 2.5 mg/kg, iv. To be noted: in vivo.
A short description of data set [11]: Half life in Beagle dog at 2.5 mg/kg, iv. The following applies: in vivo.
Data set [12] in a line: Clearance in Beagle dog at 2.5 mg/kg, iv. To be noted: in vivo.
A short description of data set [13]: Volume of distribution at steady state in Sprague-Dawley rat at 2.5 mg/kg, iv. The following applies: in vivo.
Data set [14] in a line: in vivo. The following applies: beagle, dog, po, 10 mg/kg.
The target in data set [15] is T2, Cytochrome P450 2C19 (Homo sapiens, UniProt P33261). The data set can be described thus: Inhibition of human CYP2C19 expressed in insect cell microsomes at 10 uM in presence of NADP+ by fluorescence based analysis. In kind it is ADME, Microsome.
A short description of data set [16]: in vivo. To be noted: Sprague-Dawley, rat, po, 10 mg/kg.
The target in data set [17] is T3, Cytochrome P450 2C9 (Homo sapiens, UniProt P11712). The data set can be described thus: Inhibition of human CYP2C9 expressed in insect cell microsomes in presence of NADP+ by fluorescence based analysis.
T3 sequence (P11712 whole entry): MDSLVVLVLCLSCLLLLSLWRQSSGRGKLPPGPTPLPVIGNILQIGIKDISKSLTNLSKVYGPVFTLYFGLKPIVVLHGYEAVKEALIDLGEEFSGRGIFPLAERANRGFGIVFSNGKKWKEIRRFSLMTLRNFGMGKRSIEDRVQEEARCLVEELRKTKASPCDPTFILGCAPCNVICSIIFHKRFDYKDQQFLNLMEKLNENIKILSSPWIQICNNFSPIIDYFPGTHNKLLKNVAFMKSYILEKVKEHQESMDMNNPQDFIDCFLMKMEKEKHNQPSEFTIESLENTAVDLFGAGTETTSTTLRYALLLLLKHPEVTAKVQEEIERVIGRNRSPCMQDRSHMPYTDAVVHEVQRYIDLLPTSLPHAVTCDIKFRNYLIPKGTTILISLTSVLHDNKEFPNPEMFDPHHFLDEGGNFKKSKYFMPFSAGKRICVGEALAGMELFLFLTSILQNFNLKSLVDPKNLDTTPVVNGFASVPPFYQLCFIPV
The target of data set [18] is Somatostatin receptor type 2 (Canis lupus familiaris, UniProt Q49LX6). The data set can be described thus: Agonist activity at dog SST2 receptor.
Sequence of Somatostatin receptor type 2 (Canis lupus familiaris, UniProt Q49LX6) (Q49LX6 whole entry): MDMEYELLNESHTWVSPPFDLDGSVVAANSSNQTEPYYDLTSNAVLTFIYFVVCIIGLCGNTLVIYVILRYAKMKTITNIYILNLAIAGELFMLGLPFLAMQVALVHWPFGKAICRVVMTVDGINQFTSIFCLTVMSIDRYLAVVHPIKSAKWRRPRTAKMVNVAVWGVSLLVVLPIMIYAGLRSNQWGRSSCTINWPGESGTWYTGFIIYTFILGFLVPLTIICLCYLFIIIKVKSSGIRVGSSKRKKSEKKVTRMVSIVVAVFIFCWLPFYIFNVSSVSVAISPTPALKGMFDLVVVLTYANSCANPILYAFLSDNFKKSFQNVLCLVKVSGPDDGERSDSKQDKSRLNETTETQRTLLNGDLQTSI
The target of data set [19] is T2, Cytochrome P450 2C19. The data set can be described thus: Inhibition of human CYP2C19 expressed in insect cell microsomes in presence of NADP+ by fluorescence based analysis.
Data set [20] has as its target T3, Cytochrome P450 2C9. The data set can be described thus: Inhibition of human CYP2C9 expressed in insect cell microsomes at 10 uM in presence of NADP+ by fluorescence based analysis. The class given is ADME, Microsome.
In data set [21] the target is T4, Cytochrome P450 2D6 (Homo sapiens, UniProt P10635). The data set can be described thus: Inhibition of human CYP2D6 expressed in insect cell microsomes in presence of NADP+ by fluorescence based analysis.
T4 sequence (P10635 whole entry): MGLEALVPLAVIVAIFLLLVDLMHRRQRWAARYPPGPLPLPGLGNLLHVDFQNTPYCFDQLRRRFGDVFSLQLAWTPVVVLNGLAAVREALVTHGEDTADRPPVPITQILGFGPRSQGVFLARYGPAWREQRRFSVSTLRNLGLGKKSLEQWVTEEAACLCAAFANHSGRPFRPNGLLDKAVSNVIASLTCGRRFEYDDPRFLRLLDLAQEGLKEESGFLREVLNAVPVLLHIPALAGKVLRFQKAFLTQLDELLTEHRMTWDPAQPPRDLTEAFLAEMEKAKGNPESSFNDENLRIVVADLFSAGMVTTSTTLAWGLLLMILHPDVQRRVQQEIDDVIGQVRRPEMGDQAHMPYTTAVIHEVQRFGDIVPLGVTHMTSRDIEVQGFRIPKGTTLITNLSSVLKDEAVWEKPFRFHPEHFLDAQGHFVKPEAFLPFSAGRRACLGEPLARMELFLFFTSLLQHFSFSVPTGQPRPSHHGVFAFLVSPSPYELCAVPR
A short description of data set [22]: Volume of distribution at steady state in Beagle dog at 2.5 mg/kg, iv. To be noted: in vivo.
Data set [23] addresses T4, Cytochrome P450 2D6. The data set can be described thus: Inhibition of human CYP2D6 expressed in insect cell microsomes at 10 uM in presence of NADP+ by fluorescence based analysis. In kind it is ADME, Microsome.
The target in data set [24] is T1, Cytochrome P450 3A4. The data set can be described thus: Inhibition of human CYP3A4 expressed in insect cell microsomes in presence of NADP+ by fluorescence based analysis.
A short description of data set [25]: in vivo. The following applies: beagle, dog, po, 10 mg/kg. This is another data set of the same source.
Data set [26] can be described thus: in vivo. The following applies: Sprague-Dawley, rat, po, 10 mg/kg. The source holds these as a separate data set.

Sequence of Somatostatin receptor type 2 (Homo sapiens, UniProt P30874) (P30874 whole entry): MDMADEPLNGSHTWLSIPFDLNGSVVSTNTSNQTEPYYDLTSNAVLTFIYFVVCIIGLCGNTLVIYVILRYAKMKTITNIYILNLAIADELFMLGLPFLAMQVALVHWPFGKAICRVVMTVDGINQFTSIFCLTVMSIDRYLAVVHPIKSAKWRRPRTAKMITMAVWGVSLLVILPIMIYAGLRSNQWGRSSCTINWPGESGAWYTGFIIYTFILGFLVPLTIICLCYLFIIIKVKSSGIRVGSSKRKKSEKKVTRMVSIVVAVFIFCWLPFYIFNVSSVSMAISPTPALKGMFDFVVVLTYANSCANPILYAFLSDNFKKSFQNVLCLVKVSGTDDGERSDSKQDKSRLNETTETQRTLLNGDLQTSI
T1 sequence (P08684 whole entry): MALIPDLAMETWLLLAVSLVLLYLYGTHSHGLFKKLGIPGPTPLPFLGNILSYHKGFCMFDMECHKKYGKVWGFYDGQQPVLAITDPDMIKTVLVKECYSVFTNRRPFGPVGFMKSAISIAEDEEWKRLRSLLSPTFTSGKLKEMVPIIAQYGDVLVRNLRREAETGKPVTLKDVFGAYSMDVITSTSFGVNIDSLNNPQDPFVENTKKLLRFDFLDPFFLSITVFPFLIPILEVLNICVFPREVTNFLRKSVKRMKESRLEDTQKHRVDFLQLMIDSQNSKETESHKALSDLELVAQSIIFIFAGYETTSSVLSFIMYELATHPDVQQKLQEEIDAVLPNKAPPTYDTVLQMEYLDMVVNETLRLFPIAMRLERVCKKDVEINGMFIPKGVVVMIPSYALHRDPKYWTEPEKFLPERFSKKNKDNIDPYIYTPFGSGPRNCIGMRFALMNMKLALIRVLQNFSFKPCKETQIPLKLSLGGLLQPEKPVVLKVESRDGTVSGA
Sequence of Somatostatin receptor type 1 (P30872 whole entry): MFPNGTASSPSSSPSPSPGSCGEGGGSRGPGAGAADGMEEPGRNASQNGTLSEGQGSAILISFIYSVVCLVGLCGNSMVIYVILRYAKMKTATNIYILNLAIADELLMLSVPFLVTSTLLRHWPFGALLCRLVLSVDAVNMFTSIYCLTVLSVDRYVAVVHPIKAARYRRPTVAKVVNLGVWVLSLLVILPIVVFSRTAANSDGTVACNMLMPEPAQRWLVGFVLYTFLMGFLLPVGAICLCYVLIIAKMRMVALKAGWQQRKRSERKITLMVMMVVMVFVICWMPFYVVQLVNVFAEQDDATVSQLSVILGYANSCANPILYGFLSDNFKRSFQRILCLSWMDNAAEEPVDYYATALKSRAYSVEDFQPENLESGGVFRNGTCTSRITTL
Sequence of Voltage-gated inwardly rectifying potassium channel KCNH2 (Q12809 whole entry): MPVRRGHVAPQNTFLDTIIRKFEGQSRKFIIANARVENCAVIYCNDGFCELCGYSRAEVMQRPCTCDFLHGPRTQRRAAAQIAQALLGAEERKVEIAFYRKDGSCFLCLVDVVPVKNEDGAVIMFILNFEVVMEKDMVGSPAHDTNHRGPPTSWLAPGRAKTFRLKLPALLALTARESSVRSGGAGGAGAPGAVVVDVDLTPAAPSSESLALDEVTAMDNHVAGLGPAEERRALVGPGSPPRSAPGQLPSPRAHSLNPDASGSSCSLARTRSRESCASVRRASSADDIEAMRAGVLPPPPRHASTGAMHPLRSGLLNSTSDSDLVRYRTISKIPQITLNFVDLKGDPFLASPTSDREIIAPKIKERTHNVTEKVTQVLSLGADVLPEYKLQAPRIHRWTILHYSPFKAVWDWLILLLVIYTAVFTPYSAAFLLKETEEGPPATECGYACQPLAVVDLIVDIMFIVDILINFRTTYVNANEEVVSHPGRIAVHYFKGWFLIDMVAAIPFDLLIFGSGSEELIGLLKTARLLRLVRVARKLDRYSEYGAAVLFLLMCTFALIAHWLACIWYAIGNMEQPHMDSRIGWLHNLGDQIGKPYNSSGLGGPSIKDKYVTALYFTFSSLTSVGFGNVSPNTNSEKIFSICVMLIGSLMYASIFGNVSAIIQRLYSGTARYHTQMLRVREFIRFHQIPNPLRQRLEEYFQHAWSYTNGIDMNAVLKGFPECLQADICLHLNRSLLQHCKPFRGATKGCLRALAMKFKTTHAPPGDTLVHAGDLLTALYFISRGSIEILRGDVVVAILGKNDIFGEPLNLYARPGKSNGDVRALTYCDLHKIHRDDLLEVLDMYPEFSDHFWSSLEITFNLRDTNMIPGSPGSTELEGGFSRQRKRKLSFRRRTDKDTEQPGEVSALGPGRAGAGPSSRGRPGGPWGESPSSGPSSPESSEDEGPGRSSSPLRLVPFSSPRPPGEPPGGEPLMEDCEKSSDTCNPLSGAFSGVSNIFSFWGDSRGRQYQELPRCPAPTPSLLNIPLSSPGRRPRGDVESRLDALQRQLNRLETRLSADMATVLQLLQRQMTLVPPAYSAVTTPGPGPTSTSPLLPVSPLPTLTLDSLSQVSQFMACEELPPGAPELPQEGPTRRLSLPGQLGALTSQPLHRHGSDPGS
Sequence of Somatostatin receptor type 4 (P31391 whole entry): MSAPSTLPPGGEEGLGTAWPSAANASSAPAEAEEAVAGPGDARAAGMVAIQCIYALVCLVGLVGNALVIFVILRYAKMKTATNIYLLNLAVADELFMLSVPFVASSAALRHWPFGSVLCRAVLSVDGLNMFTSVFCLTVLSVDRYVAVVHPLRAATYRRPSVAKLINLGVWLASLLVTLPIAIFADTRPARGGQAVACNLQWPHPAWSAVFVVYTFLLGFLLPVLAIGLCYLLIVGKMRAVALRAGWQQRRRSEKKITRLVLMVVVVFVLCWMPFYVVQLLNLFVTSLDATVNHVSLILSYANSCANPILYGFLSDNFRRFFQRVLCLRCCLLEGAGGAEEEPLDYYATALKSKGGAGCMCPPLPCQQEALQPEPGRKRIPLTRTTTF

By EC50 is commonly meant the concentration that produces a half-maximal response. In data set [1], `N#Cc1cccc(-c2ccc3ncc(-c4cc(F)cc(F)c4)c(N4CCC(N)CC4)c3c2)c1` yielded a concentration for a half-maximal effect (EC50) of 1.4 nM.

What is called IC50 is the concentration that gives 50% inhibition. For the compound `NC1CCN(c2c(-c3cc(F)cc(F)c3)cnc3ccc(-c4cccc(O)c4)cc23)CC1`, the EC50 was greater than 1000 nM in [2], greater than 1000 nM in data set [3], 15.8 nM in data set [4] and greater than 1000 nM in data set [6]. For the same compound, the IC50 in [5] was less than 1000 nM.

For `COc1cc(F)cc(-c2cnc3ccc(-c4cccc(C#N)c4O)cc3c2N2CCC(N)CC2)c1`, the EC50 in data set [2], in data set [3], in data set [4] and in data set [6] was greater than 1000 nM each time.

On to `NC1CCN(c2c(-c3cc(F)cc(F)c3)cnc3ccc(-c4ccccc4O)cc23)CC1`, for which the EC50 in data set [1] was 3.4 nM.

`N#Cc1cccc(-c2ccc3ncc(-c4cccc(F)c4)c(N4CCC(N)CC4)c3c2)c1O`: the EC50 in data set [2] is greater than 1000 nM; in data set [3], greater than 1000 nM; in data set [4], 1000 nM; in data set [6], greater than 1000 nM. Also, the IC50 in [5] is greater than 10000 nM.

As to `Cc1cc(F)cc(-c2cnc3ccc(-c4cccc(C#N)c4O)cc3c2N2CCC(N)CC2)c1`, the EC50 was 0.17 nM in [1]; greater than 1000 nM in [2]; greater than 1000 nM in data set [3]; greater than 1000 nM in [4]; greater than 1000 nM in [6].

By half-life is commonly meant the time in which the quantity being followed falls by half. A higher half-life goes with slow decline. In general, clearance refers to the rate of elimination divided by the concentration. Broadly, the Vd is a proportionality between amount in the body and measured concentration, not a real space. High values mean extensive tissue distribution, low ones confinement near the circulation. As usually defined, the Cmax is the maximum level reached in the sampled fluid or tissue. One may read the AUC(0-inf) as total exposure, with the tail of the curve extrapolated. Low values mean less exposure, high ones more exposure. Take `N#Cc1cccc(-c2ccc3ncc(-c4cc(F)cc(F)c4)c(N4CCC(N)CC4)c3c2)c1O` [PALTUSOTINE]: the half-life was 2.8 h in data set [7] and 7.5 h in data set [11]. The “inhibition (INH)” value on Cytochrome P450 3A4 [8], on Cytochrome P450 2C19 [15], at Cytochrome P450 2C9 [20] and at Cytochrome P450 2D6 [23] was “Not Active” throughout. The EC50 in data set [9] was 1.2 nM; in data set [2], greater than 1000 nM; in data set [18], 6.6 nM; in data set [3] it was greater than 1000 nM; in data set [4] it was 1000 nM; in data set [6] it was greater than 1000 nM. In addition, the clearance in data set [10] was determined as 9.1 mL/min/kg; in data set [12], 9.4 mL/min/kg. Moreover, the Vd worked out at 1.5 L/kg in data set [13] and 3.5 L/kg in [22]. Besides, the Cmax in the data set “in vivo [14]” is 1370 ng/mL; in “in vivo [26]” it was 129 ng/mL. For the same compound, the AUC(0-inf) in the data set “in vivo [16]” was found to be 1610 ng·h/mL; in the data set “in vivo [25]” it was 10400 ng·h/mL. Further, the IC50 on Cytochrome P450 2C9 [17] was 7940 nM; on Cytochrome P450 2C19 [19], 5010 nM; on Cytochrome P450 2D6 [21], greater than 10000 nM; at Cytochrome P450 3A4 [24] it was greater than 10000 nM.

Turning to `N#Cc1cc(F)cc(-c2ccc3ncc(-c4cc(F)cc(F)c4)c(N4CCC(N)CC4)c3c2)c1O`, the “inhibition (INH)” value at Cytochrome P450 3A4 [8], at Cytochrome P450 2C19 [15], on Cytochrome P450 2C9 [20] and on Cytochrome P450 2D6 [23] was “Not Active” throughout. Besides, the EC50 in data set [1] was 0.34 nM; in data set [2], greater than 1000 nM; in data set [4] it was greater than 1000 nM; in data set [6], greater than 1000 nM. Besides, the IC50 is 6310 nM at Cytochrome P450 2C9 [17]; 3980 nM at Cytochrome P450 2C19 [19]; greater than 10000 nM on Cytochrome P450 2D6 [21]; 10000 nM in data set [5]; 10000 nM on Cytochrome P450 3A4 [24].

As for `NC1CCN(c2c(-c3cc(F)cc(F)c3)cnc3ccc(-c4cccc(F)c4O)cc23)CC1`, the EC50 in [2] was greater than 1000 nM; in [3], greater than 1000 nM; in [4] it was 25.1 nM; in data set [6] it was greater than 1000 nM. The compound also gave an IC50 in data set [5] of 1000 nM.

In the case of `NC1CCN(c2c(-c3cc(Cl)cc(Cl)c3)cnc3ccccc23)CC1`, the EC50 in [1] amounted to 140 nM.
